Here are results for 41 compounds from patent US7964624B1, “Inhibitors of serine proteases” (priority 2005, dated 2011).

Molecules are shown by their SMILES. A value given as a limit tells only on which side of the number the result lay.

One assay deals with T1, HCV NS3 protease domain (Hepatitis C virus genotype 1b, UniProt Q9WMX2).
T1 construct: The first 181 amino acids of NS3 (residues 1027-1207 of the viral polyprotein); hexa-histidine (C); made in house; host or cells: E. coli BL21/DE3 pLysS
In words: biochemical. The note with it: Enzyme Assay 1 (HCV NS3 Protease Domain Peptide Cleavage Assay) activity, apparent Ki class.

For assay [1], the target named is T2, full-length hepatitis C viral protein NS3•4A (Hepatitis C virus genotype 1a, UniProt P27958).
T2 construct: hexa-histidine (N); made in house; host or cells: Sf9 insect cells (baculovirus, pVL1392)
In words: biochemical. More on the design: species or system HCV sub-type strain 1a.

Where [2] appears, read: Enzyme Assay 2 (HCV NS3 Peptide Cleavage Assay) activity, apparent Ki class.
[3] abbreviates: Enzyme Assay 2, HCV NS3 Peptide Cleavage Assay, apparent Ki.

Turning to `CCC[C@H](NC(=O)[C@@H]1C[C@]2(CC(c3cccc(Cl)c3)=NO2)CN1C(=O)CCNS(=O)(=O)c1ccc(NC(C)=O)cc1)C(=O)C(=O)NC1CC1` [Compound 309], the Ki (on HCV NS3 protease domain; in assay [1] (setting [2])) was greater than 500 nM in each case. As to `C#CCCC(NC(=O)[C@@H]1C[C@]2(CC(c3cc(Cl)c(OC)cc3OC)=NO2)CN1C(=O)[C@@H](NC(=O)CC1CCOCC1)C(C)(C)C)C(=O)C(=O)NC1CC1` (stereo partly drawn) [Compound 510], the Ki at HCV NS3 protease domain is 100 to 500 nM; in assay [1] (setting [2]), less than 100 nM. The like results for `CCC[C@H](NC(=O)[C@@H]1C[C@]2(CC(c3cccc(Cl)c3)=NO2)CN1C(=O)[C@@H](NC(=O)CC1C[C@@H](C)O[C@@H](C)C1)C(C)(C)C)C(=O)C(=O)NC1CC1` (stereo partly drawn) [Compound 442] were, in that order, 100 to 500 nM and less than 100 nM. In the same order, the values of `C=C[C@@H]1C[C@]1(NC(=O)[C@@H]1C[C@]2(CC(CC)=NO2)CN1C(=O)[C@@H](NC(=O)OC1CCCC1)C(C)(C)C)C(=O)NS(=O)(=O)C1CC1` [Compound 438] are greater than 500 nM and 100 to 500 nM. The like results for `CCC[C@H](NC(=O)[C@@H]1C[C@]2(CC(c3cccc(Cl)c3)=NO2)CN1C(=O)c1ccc(Cl)cc1Nc1ccc(OC)nc1)C(=O)C(=O)NC1CC1` [Compound 248] were, in that order, greater than 500 nM and greater than 500 nM. Consider `CCC[C@H](NC(=O)[C@@H]1C[C@]2(CC(c3cccc(Cl)c3)=NO2)CN1C(=O)c1cc2cc(Br)ccc2[nH]1)C(=O)C(=O)NC1CC1` [Compound 46], for which the Ki (at HCV NS3 protease domain; in assay [1] (setting [2])) was greater than 500 nM in each case. As to `CCC[C@H](NC(=O)[C@@H]1C[C@]2(CC(c3cc(Cl)cc(OC)c3OC)=NO2)CN1C(=O)[C@@H](NC(=O)CC1CCCCC1)C(C)(C)C)C(=O)C(=O)NC1CC1` [Compound 321], the Ki on HCV NS3 protease domain was 100 to 500 nM; in assay [1] (setting [2]), less than 100 nM.

Consider `CCC[C@H](NC(=O)[C@@H]1C[C@]2(CC(c3cccc(Cl)c3)=NO2)CN1C(=O)[C@@H](NC(=O)CC1CCCCC1)C(C)(C)C)C(=O)C(=O)N1CC(OCC)C1` [Compound 133], for which the Ki (on HCV NS3 protease domain; in assay [1] (setting [2])) was 100 to 500 nM throughout. In the case of `CCC[C@H](NC(=O)[C@@H]1C[C@]2(CC(c3cccc(Cl)c3)=NO2)CN1C(=O)[C@@H](NC(=O)CC1CCCCC1)C(C)(C)C)C(=O)C(=O)Nc1ccc(C)c(C#N)c1` [Compound 96], the Ki is greater than 500 nM on HCV NS3 protease domain and 100 to 500 nM in assay [1] (setting [2]).

Turning to `CCC[C@H](NC(=O)[C@@H]1C[C@]2(CC(c3cccc(Cl)c3)=NO2)CN1C(=O)[C@H](NS(=O)(=O)c1ccc(C)cc1)c1ccccc1)C(=O)C(=O)NC1CC1` [Compound 476], the Ki (at HCV NS3 protease domain; in assay [1] (setting [2])) was 100 to 500 nM throughout. As to `CCC[C@H](NC(=O)[C@@H]1C[C@]2(CC(c3ccc(C)c(Cl)c3)=NO2)CN1C(=O)[C@@H](NC(=O)CC1CCCCC1)C(C)(C)C)C(=O)C(=O)NC1CC1` [Compound 3], the Ki at HCV NS3 protease domain is 100 to 500 nM; in assay [1] (setting [2]), less than 100 nM. `CCC[C@H](NC(=O)[C@@H]1C[C@]2(CC(c3cccc(Cl)c3)=NO2)CN1C(=O)[C@@H](NC(=O)CC1CCCCC1)C(C)(C)C)C(=O)C(=O)Nc1cc(OC)ccc1OC` [Compound 84]: the Ki (at HCV NS3 protease domain; in assay [1] (setting [2])) was greater than 500 nM throughout. As for `CCC[C@H](NC(=O)[C@@H]1C[C@]2(CC(c3cccc(Cl)c3)=NO2)CN1C(=O)[C@@H](NC(=O)CC1CCCCC1)C(C)(C)C)C(=O)C(=O)NCc1nc2ccccc2[nH]1` [Compound 567], the Ki on HCV NS3 protease domain is greater than 500 nM; in assay [1] (setting [2]), 100 to 500 nM. On to `CCOc1c(C)cc(C2=NO[C@]3(C2)C[C@@H](C(=O)N[C@@H](CC2CC2)C(=O)C(=O)NC)N(C(=O)[C@@H](NC(=O)[C@H]2C[C@@H]2c2ccccn2)C(C)(C)C)C3)cc1C` [Compound 986], for which, in assay [1] (setting [3]), the Ki lay within 100 to 500 nM. As to `CCC[C@H](NC(=O)[C@@H]1C[C@]2(CC(c3cc(Cl)c(OC)cc3C)=NO2)CN1C(=O)[C@@H](NC(=O)OC(C)(C)C)C(C)(C)C)C(=O)C(=O)NC` [Compound 630], the Ki in assay [1] (setting [2]) lay within 100 to 500 nM. On to `COc1c(C)cc(C2=NO[C@]3(C2)C[C@@H](C(=O)N[C@@H](CC2CC2)C(=O)C(=O)NC2CC2)N(C(=O)[C@@H](NC(=O)OC(C)(C)C)C(C)(C)C)C3)cc1C` [Compound 757], for which the Ki in assay [1] (setting [2]) was less than 100 nM. As to `CCC[C@H](NC(=O)[C@@H]1C[C@]2(CC(c3cccc(Cl)c3)=NO2)CN1C(=O)[C@@H](NC(=O)[C@H]1C[C@@H]1C1CCCC1)C(C)(C)C)C(=O)C(=O)NC1CC1` [Compound 953], the Ki in assay [1] (setting [3]) is less than 100 nM. In the case of `CCC[C@H](NC(=O)[C@@H]1C[C@]2(CC(c3cc(C)c(OC)c(Cl)c3)=NO2)CN1C(=O)[C@@H](NC(=O)OC(C)(C)C)C(C)(C)C)C(=O)C(=O)NC` [Compound 646], the Ki in assay [1] (setting [2]) was less than 100 nM. Same read-out and setting: the figure for `CCC[C@H](NC(=O)[C@@H]1C[C@]2(CC(c3cc(C)c(OC)c(Cl)c3)=NO2)CN1C(=O)[C@@H](NC(=O)OC(C)(C)C)C(C)(C)C)C(=O)C(=O)NC1CC1` [Compound 645] is less than 100 nM; for `CC(C)(C)[C@H](NC(=O)CC1CCCCC1)C(=O)N1C[C@@]2(CC(c3cccc4cccnc34)=NO2)C[C@H]1C(=O)N[C@@H](CC1CC1)C(=O)C(N)=O` [Compound 603] it is less than 100 nM. For `CCC[C@H](NC(=O)[C@@H]1C[C@]2(CC(c3cc(Cl)c(OC)cc3OC)=NO2)CN1C(=O)[C@@H](NC(=O)CC1CCCCC1)C(C)(C)C)C(=O)C(N)=O` [Compound 618], the Ki in assay [1] (setting [2]) was less than 100 nM. On the same count and under the same terms, the value for `CC(C)(C)[C@H](NC(=O)CC1CCCCCC1)C(=O)N1C[C@@]2(CC(c3cccc(Cl)c3)=NO2)C[C@H]1C(=O)N[C@@H](CC1CC1)C(=O)C(N)=O` [Compound 219] was less than 100 nM; that for `CCC[C@H](NC(=O)[C@@H]1C[C@]2(CC(c3cc(Cl)c(OC)cc3OC)=NO2)CN1C(=O)[C@@H](NC(=O)CC1CCCCCC1)C(C)(C)C)C(=O)C(=O)NC` [Compound 655] was 100 to 500 nM; that for `CCC[C@H](NC(=O)[C@@H]1C[C@]2(CC(c3cccc4cccnc34)=NO2)CN1C(=O)[C@@H](NC(=O)CC1CCCCC1)C(C)(C)C)C(=O)C(=O)NC` [Compound 68] was less than 100 nM. For `CNC(=O)C(=O)[C@H](CC1CC1)NC(=O)[C@@H]1C[C@]2(CC(c3cccc(Cl)c3)=NO2)CN1C(=O)[C@@H](NC(=O)[C@H]1CC1c1ccccc1)C(C)(C)OC` (stereo partly drawn) [Compound 959], the Ki in assay [1] (setting [3]) was less than 100 nM.

With `COc1c(C)cc(C2=NO[C@]3(C2)C[C@@H](C(=O)N[C@@H](CC2CC2)C(=O)C(N)=O)N(C(=O)[C@@H](NC(=O)CC2CCCCCC2)C(C)(C)C)C3)cc1C` [Compound 730], in assay [1] (setting [2]), the Ki is less than 100 nM.

For `CNC(=O)C(=O)[C@H](CC1CC1)NC(=O)[C@@H]1C[C@]2(CC(c3cccc(Cl)c3)=NO2)CN1C(=O)[C@@H](NC(=O)CC1CCCCC1)C1(OC)CC1` [Compound 617], the Ki in assay [1] (setting [2]) lay within 100 to 500 nM.

Turning to `COc1cc(OC)c(C2=NO[C@]3(C2)C[C@@H](C(=O)N[C@@H](CC2CC2)C(=O)C(=O)NC2CC2)N(C(=O)[C@@H](NC(=O)OC(C)(C)C)C(C)(C)C)C3)cc1Cl` [Compound 745], the Ki in assay [1] (setting [2]) was less than 100 nM. Regarding `CCC[C@H](NC(=O)[C@@H]1C[C@]2(CC(c3cccc(Cl)c3)=NO2)CN1C(=O)[C@@H](NC(=O)[C@H]1C[C@@H]1C1CCCCC1)C(C)(C)C)C(=O)C(=O)NC1CC1` [Compound 920], in assay [1] (setting [3]), the Ki lay in the range of 100 to 500 nM. Still for that read-out and setting: the value for `CCC[C@H](NC(=O)[C@@H]1C[C@]2(CC(c3cc(C)c(OCC)c(C)c3)=NO2)CN1C(=O)[C@@H](NC(=O)[C@@H]1C[C@H]1C(C)C)C(C)(C)C)C(=O)C(=O)NC1CC1` [Compound 983] was less than 100 nM. Regarding `CCC[C@H](NC(=O)[C@@H]1C[C@@]2(CC(c3cc(Cl)c4c(c3)CCCN4C)=NO2)CN1C(=O)[C@@H](NC(=O)OC(C)(C)C)C(C)(C)C)C(=O)C(=O)NC1CC1` [Compound 600], the Ki in assay [1] (setting [2]) was in the range of 100 to 500 nM. Turning to `CCC[C@H](NC(=O)[C@@H]1C[C@]2(CC(c3cc(Cl)ccc3N(C)C)=NO2)CN1C(=O)[C@@H](NC(=O)CC1CCCCC1)C(C)(C)C)C(=O)C(=O)NC1CC1` [Compound 803], in assay [1] (setting [3]), the Ki lay in the range of 100 to 500 nM.

As for `CCC[C@H](NC(=O)[C@@H]1C[C@]2(CC(c3cccc4cccnc34)=NO2)CN1C(=O)[C@@H](NC(=O)OC1CCCC1)C(C)(C)C)C(=O)C(=O)NC1CC1` [Compound 648], in assay [1] (setting [2]), the Ki was in the range of 100 to 500 nM.

In the case of `CCC[C@H](NC(=O)[C@@H]1C[C@]2(CC(c3cccc4cccnc34)=NO2)CN1C(=O)[C@@H](NC(=O)OC(C)(C)C)C(C)(C)C)C(=O)C(=O)NC1CC1` [Compound 619], the Ki in assay [1] (setting [2]) was less than 100 nM.

As to `CNC(=O)C(=O)[C@H](CC1CC1)NC(=O)[C@@H]1C[C@]2(CC(c3cc(C)c(OC)c(C)c3)=NO2)CN1C(=O)[C@@H](NC(=O)CC1CCCCC1)C(C)(C)OC` [Compound 788], the Ki in assay [1] (setting [2]) is less than 100 nM.

As to `CCC[C@H](NC(=O)[C@@H]1C[C@]2(CC(c3cc(Cl)c(OC)cc3OC)=NO2)CN1C(=O)[C@@H](NC(=O)CC1CCCCCC1)C(C)(C)C)C(=O)C(=O)NC1CC1` [Compound 129], the Ki in assay [1] (setting [2]) was less than 100 nM. Same read-out and setting: the figure for `CCC[C@H](NC(=O)[C@@H]1C[C@]2(CC(c3cnc(OC)nc3OC)=NO2)CN1C(=O)[C@@H](NC(=O)OC1CCCC1)C(C)(C)C)C(=O)C(=O)NC1CC1` [Compound 678] is 100 to 500 nM; for `COc1ccc(Cl)cc1C1=NO[C@]2(C1)C[C@@H](C(=O)N[C@@H](CC1CC1)C(=O)C(N)=O)N(C(=O)[C@@H](NC(=O)CC1CCCCC1)C(C)(C)C)C2` [Compound 633] it is less than 100 nM; for `CCC[C@H](NC(=O)[C@@H]1C[C@]2(CC(c3cccc(Cl)c3)=NO2)CN1C(=O)[C@@H](NC(=O)CC1CCCCC1)C(C)(C)C)C(=O)C(=O)N1CC(OC2CCOC2)C1` (stereo partly drawn) [Compound 368] it is 100 to 500 nM. For the compound `CCOc1cc(OC)c(C2=NO[C@]3(C2)C[C@@H](C(=O)N[C@@H](CC2CC2)C(=O)C(N)=O)N(C(=O)[C@@H](NC(=O)OC(C)(C)C)C(C)(C)C)C3)cc1Cl` [Compound 971], the Ki in assay [1] (setting [3]) was less than 100 nM. As to `CCC[C@H](NC(=O)[C@@H]1C[C@]2(CC(c3cc(Cl)c(OC)cc3C)=NO2)CN1C(=O)[C@@H](NC(=O)CC1CCCCCC1)C(C)(C)C)C(=O)C(N)=O` [Compound 622], the Ki in assay [1] (setting [2]) was 100 to 500 nM.
